Reference: PubChem BioAssay (NCI)
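These data come from cells grown in 96-well plates and exposed to compound for 48 hours at five concentrations. The concentration for full growth arrest is given as TGI.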

Columns and labels:
Experiment in all cases: NCI tumour cell line growth inhibition, 48 h
[1] = test system: M14 melanoma
[2] = test system: SF-539 CNS
[3] = test system: OVCAR-4 ovarian
[4] = test system: SK-MEL-28 melanoma
[5] = test system: MALME-3M melanoma
[6] = test system: NCI-H226 lung
[7] = test system: HCT-116 colon
[8] = test system: HOP-92 NSCLC
[9] = test system: HCC-2998 colon
[10] = test system: UACC-62 melanoma
[11] = test system: SK-MEL-2 melanoma
[12] = test system: DU-145 prostate
[13] = test system: SF-268 CNS
[14] = test system: SR leukemia
[15] = test system: RPMI-8226 leukemia
[16] = test system: KM12 colon
[17] = test system: IGROV1 ovarian
[18] = test system: LOX IMVI melanoma
[19] = test system: T-47D breast
[20] = test system: HCT-15 colon
[21] = test system: OVCAR-5 ovarian
[22] = test system: SN12C renal
[23] = test system: TK-10 renal
[24] = test system: SNB-75 CNS
[25] = test system: BT-549 breast
[26] = test system: HOP-62 NSCLC
[27] = test system: SF-295 CNS
[28] = test system: NCI-H460 lung
[29] = test system: SK-OV-3 ovarian
[30] = test system: SW-620 colon
[31] = test system: K-562 leukemia
[32] = test system: 786-0 renal
[33] = test system: HT29 colon
[34] = test system: EKVX NSCLC
[35] = test system: HS 578T breast
[36] = test system: MDA-MB-435
[37] = test system: ACHN renal
[38] = test system: MOLT-4 leukemia
[39] = test system: OVCAR-3 ovarian
[40] = test system: CCRF-CEM leukemia
[41] = test system: A549 NSCLC
[42] = test system: NCI/ADR-RES ovarian
[43] = test system: PC-3 prostate
[44] = test system: HL-60(TB) leukemia
[45] = test system: SNB-19 CNS
[46] = test system: NCI-H522 lung
[47] = test system: U251 CNS
[48] = test system: OVCAR-8 ovarian
[49] = test system: UO-31 renal
[50] = test system: CAKI-1 renal
[51] = test system: UACC-257 melanoma
[52] = test system: MDA-MB-231 breast
[53] = test system: NCI-H23 lung
[54] = test system: COLO 205 colon
[55] = test system: MDA-N
[56] = test system: RXF 393 renal
[57] = test system: MCF7 breast
[58] = test system: A498 renal
[59] = test system: SK-MEL-5 melanoma

SMILES: O=c1[nH]c2cc(C(F)(F)F)ccc2nc1CBr
- TGI [1]: 21.1 µM
- TGI [2]: 16.1 µM
- TGI [3]: 32.3 µM
- TGI [4]: 30 µM
- TGI [5]: 27.4 µM
- TGI [6]: 26.7 µM
- TGI [7]: 28.7 µM
- TGI [8]: 11.1 µM
- TGI [9]: 33.2 µM
- TGI [10]: 23.2 µM
- TGI [11]: 26.6 µM
- TGI [12]: 23.1 µM
- TGI [13]: 59.1 µM
- TGI [14]: > 100 µM
- TGI [15]: 69.8 µM
- TGI [16]: 31.4 µM
- TGI [17]: 24.5 µM
- TGI [18]: 12.8 µM
- TGI [19]: 33.3 µM
- TGI [20]: 33.3 µM
- TGI [21]: 29.3 µM
- TGI [22]: 34.8 µM
- TGI [23]: 27.9 µM
- TGI [24]: 30.7 µM
- TGI [25]: 27.5 µM
- TGI [26]: 28.7 µM
- TGI [27]: 28.9 µM
- TGI [28]: 32.3 µM
- TGI [29]: 35.2 µM
- TGI [30]: 37.6 µM
- TGI [31]: > 100 µM
- TGI [32]: 19.2 µM
- TGI [33]: 38.6 µM
- TGI [34]: 29.5 µM
- TGI [35]: 56.6 µM
- TGI [36]: 26.2 µM
- TGI [37]: 20.2 µM
- TGI [38]: > 100 µM
- TGI [39]: 23.7 µM
- TGI [40]: 5.73 µM
- TGI [41]: 27.4 µM
- TGI [42]: 50.4 µM
- TGI [43]: 26.3 µM
- TGI [44]: 14.3 µM
- TGI [45]: 32.7 µM
- TGI [46]: 1.52 µM
- TGI [47]: 24.8 µM
- TGI [48]: 39.6 µM
- TGI [49]: 18.1 µM
- TGI [50]: 17.5 µM
- TGI [51]: 28.7 µM
- TGI [52]: 35.6 µM
- TGI [53]: 38.6 µM
- TGI [54]: 35.8 µM
- TGI [55]: 26.9 µM
- TGI [56]: 25.2 µM
- TGI [57]: 21.7 µM
- TGI [58]: 33 µM
- TGI [59]: 28.5 µM

SMILES: O=C(O)c1ccccc1C1CCCc2c1[nH]c1ccccc21 (stereo not drawn)
- TGI [1]: > 100 µM
- TGI [2]: > 100 µM
- TGI [3]: > 100 µM
- TGI [4]: > 100 µM
- TGI [5]: > 100 µM
- TGI [6]: > 100 µM
- TGI [7]: > 100 µM
- TGI [8]: > 100 µM
- TGI [9]: > 100 µM
- TGI [10]: > 100 µM
- TGI [11]: > 100 µM
- TGI [12]: > 100 µM
- TGI [13]: > 100 µM
- TGI [14]: > 100 µM
- TGI [15]: > 100 µM
- TGI [16]: > 100 µM
- TGI [17]: > 100 µM
- TGI [18]: > 100 µM
- TGI [19]: 71 µM
- TGI [20]: > 100 µM
- TGI [21]: > 100 µM
- TGI [22]: > 100 µM
- TGI [23]: > 100 µM
- TGI [24]: 59.3 µM
- TGI [25]: > 100 µM
- TGI [26]: > 100 µM
- TGI [27]: > 100 µM
- TGI [28]: > 100 µM
- TGI [29]: > 100 µM
- TGI [30]: > 100 µM
- TGI [31]: > 100 µM
- TGI [32]: > 100 µM
- TGI [33]: > 100 µM
- TGI [34]: > 100 µM
- TGI [35]: > 100 µM
- TGI [36]: > 100 µM
- TGI [37]: > 100 µM
- TGI [38]: > 100 µM
- TGI [39]: > 100 µM
- TGI [40]: 76.2 µM
- TGI [41]: > 100 µM
- TGI [42]: > 100 µM
- TGI [43]: > 100 µM
- TGI [44]: > 100 µM
- TGI [45]: > 100 µM
- TGI [46]: > 100 µM
- TGI [47]: > 100 µM
- TGI [48]: > 100 µM
- TGI [49]: > 100 µM
- TGI [50]: > 100 µM
- TGI [51]: > 100 µM
- TGI [52]: > 100 µM
- TGI [53]: > 100 µM
- TGI [54]: > 100 µM
- TGI [55]: > 100 µM
- TGI [56]: > 100 µM
- TGI [57]: > 100 µM
- TGI [58]: 85.9 µM
- TGI [59]: > 100 µM
